Assay results: ChEMBL document CHEMBL4024780, “Discovery of Potent and Selective Allosteric Inhibitors of Protein Arginine Methyltransferase 3 (PRMT3)” (J Med Chem, 2018)

Columns and labels:
[1] = molecular target: T1, Protein arginine N-methyltransferase 3 (Homo sapiens, UniProt O60678)
Description: Inhibition of PRMT3 (unknown origin) using C-terminally biotinylated histone H4 as substrate in presence of [3H]S-adenosylmethionine by scintillation proximity assay

[2] = molecular target: T1, Protein arginine N-methyltransferase 3; assay: Binding affinity to beta galactosidase fused human PRMT3 (211 to 531 residues) expressed in human HEK293 cells after 6 hrs by InCELL hunter assay; assay type: cell-based
[3] = molecular target: T1, Protein arginine N-methyltransferase 3; assay: Binding affinity to beta galactosidase fused human PRMT3 (211 to 531 residues) expressed in human A549 cells after 6 hrs by InCELL hunter assay; assay type: cell-based
[4] = molecular target: T1, Protein arginine N-methyltransferase 3; assay: Inhibition of FLAG-tagged wild type human PRMT3 expressed in HEK293 cells assessed as decrease in exogenous H4R3 dimethylation level using GFP-tagged histone H4 as substrate after 24 hrs by Western blot analysis; assay type: cell-based

T1 sequence (O60678 whole entry, the tested form may be a part): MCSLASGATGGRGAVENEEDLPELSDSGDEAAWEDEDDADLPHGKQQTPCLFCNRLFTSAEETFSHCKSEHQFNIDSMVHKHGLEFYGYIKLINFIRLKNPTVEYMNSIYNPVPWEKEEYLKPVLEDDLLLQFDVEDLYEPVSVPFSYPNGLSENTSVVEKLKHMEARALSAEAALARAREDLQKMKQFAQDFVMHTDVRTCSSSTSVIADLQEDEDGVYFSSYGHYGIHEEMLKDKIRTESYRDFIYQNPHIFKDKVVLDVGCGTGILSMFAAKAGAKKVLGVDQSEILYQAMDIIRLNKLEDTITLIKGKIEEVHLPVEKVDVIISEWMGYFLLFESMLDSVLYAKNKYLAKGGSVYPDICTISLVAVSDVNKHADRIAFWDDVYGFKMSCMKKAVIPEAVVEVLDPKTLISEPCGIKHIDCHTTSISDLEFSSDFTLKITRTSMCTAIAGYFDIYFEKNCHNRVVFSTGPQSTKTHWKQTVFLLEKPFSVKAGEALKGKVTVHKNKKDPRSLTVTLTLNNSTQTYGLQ

Row | Compound | IC50 [1] | EC50 [2] | EC50 [3] | IC50 [4]
1 | O=C(NCC(=O)N1C2CCC1CC2)Nc1ccc2cnccc2c1 | 46 nM | – | – | –
2 | O=C(CNC(=O)Nc1ccc2cnccc2c1)NC1CCCCC1 | 477 nM | – | – | –
3 | CN1CCN(C(=O)CNC(=O)Nc2ccc3cnccc3c2)CC1 | > 1900 nM | – | – | –
4 | O=C(NCCc1ccccc1)Nc1ccc2cnccc2c1 | 833 nM | – | – | –
5 | O=C(NCCC1CC1)Nc1ccc2cnccc2c1 | > 8000 nM | – | – | –
6 | O=C(CNC(=O)Nc1ccc2cnccc2c1)NC1CC1 | 158 nM | – | – | –
7 | CON(C)C(=O)CNC(=O)Nc1ccc2cnccc2c1 | 476 nM | – | – | –

Other lines, results leading:

Row | IC50 [1] | EC50 [2] | EC50 [3] | IC50 [4] | Compound
8 | 84 nM | – | – | – | O=C(NCC(=O)N1CCCCC1)Nc1ccc2cnccc2c1
9 | 19 nM | 2700 nM | 1600 nM | – | O=C(NCC(=O)N1CCCC1)Nc1cc2ccncc2cc1F
10 | 22 nM | – | – | – | O=C(NCC(=O)N1C2CCCC1CC2)Nc1ccc2cnccc2c1
11 | 24 nM | 3100 nM | 2700 nM | 240 nM | O=C(NCC(=O)N1CC(F)(F)C(F)(F)C1)Nc1ccc2cnccc2c1
